Laboratory results taken from patent US10927100B2, “Degradable imidazolium oligomer and polymer for antimicrobial applications” (AGENCY FOR SCIENCE, TECHNOLOGY AND RESEARCH, priority 2017, dated 2021).
≈ marks a conversion by molar mass, not a printed value. Like-named read-outs stand apart in the source and are kept apart here.

Legend:
[1] = system: rat red blood cells; assay: Haemolysis; type: cell-based
Protocol: Fresh rat red blood cells (RBCs) were diluted with PBS buffer to give an RBC stock suspension (4 vol % blood cells). A 100 μL aliquot of RBC suspension was added into a 96-well plate containing 100 μL oligomer solutions of various concentrations (ranging from 4 mg mL^−1 to 2 μg mL^−1 in serial two-fold dilutions in PBS). After 1 hour incubation at 37° C., the contents of each well were pipetted into a micro-centrifuge tube and centrifuged at 2000 rpm for 5 minutes. Aliquots (100 μL) of the supernatant were transferred to a new 96-well plate. Haemolytic activity was determined as a function of haemoglobin release by measuring OD576 of 100 μL of the supernatant using a microplate reader (TECAN). A control solution that contained only PBS was used as a reference for 0% haemolysis. Absorbance of red blood cells lysed with 0.5% Triton-X was taken as 100% haemolysis. The data were expressed as mean and S.D. of four replicates, and the tests were repeated two times.

[2] = system: Candida albicans (ATCC 10231, fungus); assay: Minimum inhibitory concentration, microdilution assay; type: cell-based; conditions: for MIC: Candida albicans, ATCC10231
Protocol: (§1) Staphylococcus aureus (ATCC 6538, Gram-positive), Escherichia coli (ATCC 8739, Gram-negative), Pseudomonas aeruginosa (Gram-negative), and Candida albicans (ATCC 10231, fungus) were used as representative microorganisms to challenge the antimicrobial functions of the imidazolium salts. All bacteria and fungus were stored frozen at −80° C., and were grown overnight at 37° C. in Mueller Hinton Broth (MHB) prior to experiments. Fungus was grown overnight at 22° C. in Yeast Mold (YM) broth. […] The plates were incubated at 37° C. for 24 hours with constant shaking speed at 300 rpm. […] PBS solution containing microbial cells alone were used as negative controls. The assay was performed in four replicates and the experiments were repeated at least two times.

[3] = system: Pseudomonas aeruginosa (Gram-negative); assay: as above; type: cell-based; conditions: for MIC: Pseudomonas aeruginosa
Protocol: as §1

[4] = system: Escherichia coli (ATCC 8739, Gram-negative); assay: as above; type: cell-based; conditions: for MIC: Escherichia coli, ATCC8739
Protocol: as §1

[5] = system: Staphylococcus aureus (ATCC 6538, Gram-positive); assay: as above; type: cell-based
Protocol: as §1

[6] = system: E. coli and S. aureus; assay: SEM observation of bacteria treated with oligomers; type: cell-based; conditions: 4MIC, exposure two minutes
Protocol: Bacterial cells (3×10^8 CFU/mL) grown in MHB without or with the oligomers at 4MIC for 2 minutes were collected and centrifuged at 5000 rpm for 5 minutes. The precipitates were washed twice with PBS buffer. Then the samples were fixed with glutaraldehyde (2.5%) for 2 hours followed by washing with DI water. Dehydration of the samples was performed using a series of ethanol/water solution (35%, 50%, 75%, 90%, 95% and 100%). The dehydrated samples were mounted on copper tape. After drying for 2 days, the samples were further coated with platinum for imaging with JEOL JSM-7400F (Japan) field emission scanning electron microscope operated at an accelerating voltage of 5 keV.

[7] = system: P. aeruginosa; assay: Agar well diffusion assay; type: cell-based, Pseudomonas aeruginosa
Protocol: (§2) The degradable oligomers were dissolved in ethanol and glycerol at 0.5% w/v concentration. Agar plates were inoculated with bacteria and 6 mm wells were cut, into which 20 μL of solution was added. Plates were inoculated at 37° C. for 24 hours and zone of inhibitions measured using a pair of vernier calipers.

[8] = Critical gelation concentration in alcohols; type: physicochemical
Protocol: Gels were prepared by weighing the imidazolium oligomers directly into 4 mL glass vials and subsequently adding a known weight or volume of the solvent. The vials containing both the imidazolium and the solvent were either heated or sonicated to aid the dissolution process. The vials were left standing over night at ambient conditions. The gel state was evaluated by the stable-to-inversion-of-a-test-tube method. The critical gelation concentration (CGC) is defined as the lowest concentration of the gelator which leads to a stable gel.

[9] = system: S. aureus; assay: Resistance studies, serial passage at sub-MIC; type: cell-based, Staphylococcus aureus; conditions: for resistance to polymers IBN-CP1 or IBN-CP3 after growth with degradation product: media containing 2, 8, 16 and 100 μg/ml over one month
Protocol: The method was adapted from that of Yang and co-authors with modification [K. Fukushima, S. Liu, H. Wu, A. C. Engler, D. J. Coady, H. Maune, J. Pitera, A. Nelson, N. Wiradharma, S. Venkataraman, Y. Huang, W. Fan, J. Y. Ying, Y. Y. Yang, J. L. Hedrick. Nature Comm, 2013, 4:2861]. Drug resistance was induced by treating S. aureus repeatedly with degradable oligomers. First MICs of the tested oligomers were determined against S. aureus using the broth microdilution method. Then serial passaging was initiated by transferring bacterial suspension grown at the sub-MIC of the oligomers (½ of MIC at that passage) and was subjected to another MIC assay. After 24 hours incubation period, cells grown at the sub-MIC of the test compounds/antibiotics were once again transferred and assayed for MIC. The MIC against S. aureus was tested for 16 passages.
Drug-resistant behaviour of S. aureus was evaluated by recording the changes in the MIC normalized to that of the first passage. Conventional antibiotics vancomycin was used as the control.

[10] = Oligomer and polymer degradation by 1H NMR spectroscopy; type: physicochemical; conditions: pH 6-8 buffered solutions, ambient conditions
Protocol: Sorenson's phosphate buffer (pH, 6.0, 7.0, 8.0), tris buffer (pH 6.0, 7.0, 8.0) and sodium citrate-citric acid buffer (pH 3.0, 4.0, 5.0) were prepared in deionized water at concentrations of 100 mM, as well as 10 mM for tris buffer solution. […] A 4 mg sample of imidazolium oligomer or polymer was dissolved in deuterated buffer solution with care taken to ensure complete solution of the compounds. […] Degradation of the carbonate and ester-linked compounds was observed by disappearance of the signal of the methylene protons adjacent to the carbonate or ester functional group, and/or appearance of the signal of the methylene protons adjacent to the hydroxyl group in the degradation product.

[11] = system: E. coli; assay: Agar well diffusion assay; type: cell-based, Escherichia coli
Protocol: as §2

[12] = system: S. aureus; assay: Agar well diffusion assay; type: cell-based, Staphylococcus aureus
Protocol: as §2

[13] = rat red blood cells, 1 hour, 37° C.
[14] = 0.5% w/v solution in glycerol, compared with ethanol solution
[15] = Staphylococcus aureus, ATCC6538; read-out: MIC S. aureus

SMILES	MIC C. albicans [2]	MIC P. aeruginosa [3]	MIC E. coli [4]	MIC S. aureus [5]	HC10 [1, 13]	further results
CCCCCCCCn1cc[n+](Cc2ccc(Cn3cc[n+](Cc4ccc(C[n+]5ccn(Cc6ccc(OCn7cc[n+](Cc8ccc(Cn9cc[n+](Cc%10ccc(Cn%11cc[n+](CCCCCCCC)c%11)cc%10)c9)cc8)c7)cc6)c5)cc4)c3)cc2)c1.[Br-].[Br-].[Br-].[Br-].[Br-].[Br-] [IBN-HC8]	125 mg/L	125 mg/L	8 mg/L	16 mg/L	>2000 µg/mL	bacterial cell walls in SEM images [6]: disrupted and subsequently dissolved; zone of inhibition ([7]; 0.5% w/v in ethanol): comparable zones of inhibition compared to ethanol; zone of inhibition [7, 14]: comparable efficacy; Critical gelation concentration ([8]; ethanol): 1.5 wt %; Critical gelation concentration ([8]; n-butanol): 1.0 wt %; Critical gelation concentration ([8]; n-propanol): 0.5 wt %; passage at which MIC increase was observed ([9]; sub-MIC levels, 16 passages): 8 passage; degradation in buffered solutions [10]: not significantly degraded; zone of inhibition ([11]; 0.5% w/v in ethanol): larger zones of inhibition than ethanol on its own; zone of inhibition [11, 14]: comparable efficacy; zone of inhibition ([12]; 0.5% w/v in ethanol): larger zones of inhibition than ethanol on its own; zone of inhibition [12, 14]: comparable efficacy
OCc1ccc(Cn2cc[n+](C/C=C/Cn3cc[n+](Cc4ccc(CO)cc4)c3)c2)cc1 [F-diol1]	–	–	–	–	>2000 µg/mL	HC10 [1]: >2000 ppm; MIC ([2]; read-out: MIC C. albicans): > 2000 mg/L; MIC ([2]; read-out: MIC CA): > 2000 mg/L; MIC ([3]; read-out: MIC P. aeruginosa): 2000 mg/L; MIC ([3]; read-out: MIC PA): 2000 mg/L; MIC ([4]; read-out: MIC E. coli): > 2000 mg/L; MIC ([4]; read-out: MIC EC): > 2000 mg/L; MIC [5, 15]: 125 mg/L; MIC ([5]; Staphylococcus aureus, ATCC6538; read-out: MIC SA): 12 mg/L; resistance to polymers IBN-CP1 or IBN-CP3 after growth with degradation product [9]: did not develop resistance
CN[C@H](CC(C)C)C(=O)N[C@H]1C(=O)N[C@@H](CC(N)=O)C(=O)N[C@H]2C(=O)N[C@H]3C(=O)N[C@H](C(=O)N[C@H](C(=O)O)c4cc(O)cc(O)c4-c4cc3ccc4O)[C@H](O)c3ccc(c(Cl)c3)Oc3cc2cc(c3O[C@@H]2O[C@H](CO)[C@@H](O)[C@H](O)[C@H]2O[C@H]2C[C@](C)(N)[C@H](O)[C@H](C)O2)Oc2ccc(cc2Cl)[C@H]1O [Vancomycin, reference compound]	–	–	–	–	>2000 µg/mL	MIC ([5]; Staphylococcus aureus, ATCC6538, read-out: MIC S. aureus): 2 mg/L (≈ 1.38 µM); change of MIC value over serial passages ([9]; sub-MIC levels, 16 passages): quadrupled; passage at which MIC increase was observed ([9]; sub-MIC levels, 16 passages): 5 passage
OCc1ccc(Cn2cc[n+](Cc3ccccc3Cn3cc[n+](Cc4ccc(CO)cc4)c3)c2)cc1 [F-diol3]	–	–	–	–	>2000 µg/mL	MIC ([2]; read-out: MIC C. albicans): > 2000 mg/L; MIC ([3]; read-out: MIC P. aeruginosa): > 4000 mg/L; MIC ([4]; read-out: MIC E. coli): > 2000 mg/L; MIC [5, 15]: 500 mg/L; resistance to polymers IBN-CP1 or IBN-CP3 after growth with degradation product [9]: did not develop resistance
CCn1cc(C(=O)O)c(=O)c2cc(F)c(N3CCNCC3)cc21 [norfloxacin, reference compound]	–	–	–	–	–	MIC value relative to its original value ([9]; by the 15th passage): over 120 times

More lines, main results first:

MIC C. albicans [2]	MIC P. aeruginosa [3]	MIC E. coli [4]	MIC S. aureus [5]	SMILES	HC10 [1, 13]	further results
62 mg/L	250 mg/L	16 mg/L	125 mg/L	CCCCCCCCn1cc[n+](Cc2ccc(Cn3cc[n+](Cc4ccc(C[n+]5ccn(Cc6ccc(CN)cc6)c5)cc4)c3)cc2)c1.[Br-].[Br-].[Br-] [F1-CH2NH2]	1000 µg/mL	–
250 mg/L	2000 mg/L	2000 mg/L	>2000 mg/L	CCCCCCCCn1cc[n+](Cc2ccc(Cn3cc[n+](Cc4ccc(C[n+]5ccn(Cc6ccc(CO)cc6)c5)cc4)c3)cc2)c1.[Br-].[Br-].[Br-] [F1-CH2OH]	>2000 µg/mL	hemolysis at highest concentration ([1]; 2000 μg/ml): did not induce hemolysis
>2000 mg/L	>2000 mg/L	>2000 mg/L	2000 mg/L	OCc1ccc(Cn2cc[n+](Cc3ccc(C[n+]4ccn(Cc5ccc(CO)cc5)c4)cc3)c2)cc1.[Br-].[Br-] [F-diol2]	>2000 µg/mL	–
500 mg/L	>2000 mg/L	31 mg/L	62 mg/L	CCCCCCCCn1cc[n+](Cc2ccc(Cn3cc[n+](Cc4ccc(C[n+]5ccn(Cc6ccc(C(=O)O)cc6)c5)cc4)c3)cc2)c1.[Br-].[Br-].[Br-] [F1-COOH]	–	–
>2000 mg/L	>2000 mg/L	250 mg/L	125 mg/L	OCc1ccccc1Cn1cc[n+](Cc2ccccc2C[n+]2ccn(Cc3ccccc3CO)c2)c1.[Br-].[Br-] [F-diol5]	>2000 µg/mL	–
>2000 mg/L	>2000 mg/L	1000 mg/L	250 mg/L	OCc1ccccc1Cn1cc[n+](C/C=C/C[n+]2ccn(Cc3ccccc3CO)c2)c1.[Br-].[Br-] [F-diol4]	–	–
